Results published in US10639284B2, “Immunomodulator compounds” (CHEMOCENTRYX, INC., priority 2016, dated 2020).

Target: human PD-L1 / Human PD-1 (Homo sapiens (Human), UniProt Q9NZQ7)
Experiment: Enzyme-Linked Immunosorbent Assay (ELISA), PD-1/PD-L1 binding
Conditions: Table 2; plate-coated human PD-L1, biotinylated human PD-1; read-out: ELISA IC50
Protocol: Plates were coated with 1 μg/mL of human PD-L1 (obtained from R&D) in PBS overnight at 4° C. The wells were then blocked with PBS containing 2% BSA in PBS (W/V) with 0.05% TWEEN-20 for 1 hour at 37° C. The plates were washed 3 times with PBS/0.05% TWEEN-20 and the samples were diluted to 1:5 in dilution medium in the ELISA plates. Human PD-1 and biotin 0.3 μg/mL (ACRO Biosystems) were added and incubated for 1 hour at 37° C. then washed 3 times with PBS/0.05% TWEEN-20. A second block was added with PBS containing 2% BSA in PBS (W/V)/0.05% TWEEN-20 for 10 min at 37° C. and was washed 3 times with PBS/0.05% TWEEN-20. Streptavidin-HRP was added for 1 hour at 37° C. then washed 3 times with PBS/0.05% TWEEN-20. TMB substrate was added and reacted for 20 min at 37° C. A stop solution (2 N aqueous H2SO4) was added. The absorbance was read at 450 nm using a micro-plate spectrophotometer.
Compounds in Table 2 and Table 3 were prepared by methods as described in the Examples, and evaluated according to the assay below.

Chain of human PD-L1 / Human PD-1 (Q9NZQ7 19-239): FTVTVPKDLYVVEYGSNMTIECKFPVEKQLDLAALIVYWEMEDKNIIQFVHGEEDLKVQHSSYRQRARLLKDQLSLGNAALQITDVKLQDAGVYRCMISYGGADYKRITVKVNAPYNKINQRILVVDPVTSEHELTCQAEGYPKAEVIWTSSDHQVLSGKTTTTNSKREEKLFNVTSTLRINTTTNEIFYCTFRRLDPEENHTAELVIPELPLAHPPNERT

IC50 [nM]	SMILES
100 to 500	COc1ccc(-c2cccc3c2CC[C@@H]3Oc2cc(OCc3cncc(C#N)c3)c(CN[C@@H](CO)C(=O)O)cc2Cl)cc1 [Example 2.014]
< 100	N#Cc1cncc(COc2cc(O[C@H]3CCc4c(-c5ccccc5)cccc43)c(Cl)cc2CN2CC(C(=O)O)C2)c1 [Example 2.003]
< 100	CCOc1cc(O[C@H]2CCc3c(-c4ccc5c(c4F)OCCO5)cccc32)c(Cl)cc1CN[C@@H](CO)C(=O)O [Example 2.056]
100 to 500	CC(C)c1ccccc1-c1cccc2c1CC[C@@H]2Oc1cc(OCc2cncc(C#N)c2)c(CN[C@@H](CO)C(=O)O)cc1Cl [Example 2.034]
< 100	C[C@@H](O)[C@H](NCc1cc(Cl)c(O[C@H]2CCc3c(-c4ccc5c(c4Cl)OCCO5)cccc32)cc1OCc1cncc(C#N)c1)C(=O)O [Example 2.160]
500 to 20000	COc1cccc(-c2cccc3c2CCC3CCOc2cc(OCc3cncc(C#N)c3)c(CN3CCC(O)CC3)cc2Cl)c1F (centres unmarked) [Example 2.086]
< 100	COc1cccc(-c2ccc(F)c3c2CCC3Oc2cc(OCc3cncc(C#N)c3)c(CN[C@@H](CO)C(=O)O)cc2Cl)c1F (some centres unmarked) [Example 2.047]
< 100	COC[C@H](NCc1cc(Cl)c(O[C@H]2CCc3c(-c4ccccc4F)cccc32)cc1OCc1cncc(C#N)c1)C(=O)O [Example 2.134]
< 100	N#Cc1cncc(COc2cc(O[C@H]3CCc4c(-c5ccccc5F)cccc43)c(Cl)cc2CN[C@@H](CC(N)=O)C(=O)O)c1 [Example 2.118]
500 to 20000	CCOC(=O)[C@H](CO)NCc1cc(Cl)c(O[C@H]2CCc3c(-c4ccccc4F)cccc32)cc1OCc1cncc(C#N)c1 [Example 2.162]
100 to 500	COc1cccc(-c2cccc3c2CC[C@@H]3Oc2cc(OCc3cncc(C#N)c3)c(CN3CCC[C@H](O)C3)cc2Cl)c1F [Example 2.060]
100 to 500	N#Cc1cncc(COc2cc(O[C@H]3CCc4c(-c5ccccc5F)cccc43)c(Cl)cc2CNC(CO)C(=O)NO)c1 (some centres unmarked) [Example 2.166]
500 to 20000	N#Cc1cncc(COc2cc(O[C@H]3CCc4c(-c5ccccc5F)cccc43)c(Cl)cc2CN2CCC(O)C(F)(F)C2)c1 (some centres unmarked) [Example 2.097]
500 to 20000	OC1CCN(Cc2cc(Cl)c(O[C@H]3CCc4c(-c5ccccc5F)cccc43)cc2OCc2cccnc2)CC1 [Example 2.116]
100 to 500	Nc1ncc(COc2cc(O[C@H]3CCc4c(-c5ccccc5F)cccc43)c(Cl)cc2CN2CCC(O)CC2)cn1 [Example 2.130]
100 to 500	O=C(O)[C@H](CO)NCc1cc(Cl)c(O[C@H]2CCc3c(-c4ccccc4F)cccc32)cc1OCC1CC1 [Example 2.038]
500 to 20000	CC(C)OC(=O)[C@H](CO)NCc1cc(Cl)c(O[C@H]2CCc3c(-c4ccccc4F)cccc32)cc1OCc1cncc(C#N)c1 [Example 2.172]
100 to 500	N#Cc1cncc(COc2cc(O[C@H]3CCc4c(-c5ccc(F)cc5)cccc43)c(Cl)cc2CN[C@@H](CO)C(=O)O)c1 [Example 2.008]
< 100	N#Cc1cncc(COc2cc(O[C@H]3CCc4c(-c5ccccc5F)cccc43)c(Cl)cc2CN2CCC(O)CC2)c1 [Example 2.029]

IC50 [nM]	SMILES
500 to 20000	CC(C)Oc1cc(O[C@H]2CCc3c(-c4ccccc4)cccc32)c(Cl)cc1CN[C@@H](CO)C(=O)O [Example 2.011]
100 to 500	CCOc1cc(O[C@H]2CCc3c(-c4ccccc4F)cccc32)c(Cl)cc1CN[C@H](CO)C(=O)O [Example 2.155]
100 to 500	CCOc1cc(O[C@H]2CCc3c(-c4ccccc4F)cccc32)c(Cl)cc1CNC(C)(CO)C(=O)O (some centres unmarked) [Example 2.177]
< 100	C[C@@H](O)[C@@H](NCc1cc(Cl)c(O[C@H]2CCc3c(-c4ccccc4F)cccc32)cc1OCc1cncc(C#N)c1)C(=O)O [Example 2.129]
100 to 500	CC(C)C[C@H](NCc1cc(Cl)c(O[C@H]2CCc3c(-c4ccccc4F)cccc32)cc1OCc1cncc(C#N)c1)C(=O)O [Example 2.091]
100 to 500	CC(C)[C@H](NCc1cc(Cl)c(O[C@H]2CCc3c(-c4ccccc4F)cccc32)cc1OCc1cncc(C#N)c1)C(=O)O [Example 2.123]
< 100	Cc1ccccc1-c1cccc2c1CC[C@@H]2Oc1cc(OCc2cncc(C#N)c2)c(CN[C@@H](CO)C(=O)O)cc1Cl [Example 2.006]
500 to 20000	COc1ccccc1-c1cccc2c1CC[C@@H]2Oc1cc(OCc2cncc(C#N)c2)c(CN[C@@H](CO)C(=O)O)cc1Cl [Example 2.009]
< 100	N#Cc1cncc(COc2cc(O[C@H]3CCc4c(-c5ccccc5F)cccc43)c(Cl)cc2CN2CCC(O)(C(=O)O)C2)c1 (some centres unmarked) [Example 2.022]
< 100	COc1ccc(F)c(-c2cccc3c2CC[C@@H]3Oc2cc(OCc3cncc(C#N)c3)c(CN[C@@H](CO)C(=O)O)cc2Cl)c1 [Example 2.045]
500 to 20000	N#Cc1cncc(COc2cc(O[C@H]3CCc4c(-c5ccccc5F)cccc43)c(Cl)cc2CN2CC[C@H](O)[C@@H](F)C2)c1 [Example 2.114]
500 to 20000	N#Cc1cncc(COc2cc(O[C@H]3CCc4c(-c5ccccc5F)cccc43)c(Cl)cc2CNC(C(N)=O)C(N)=O)c1 [Example 2.170]
500 to 20000	N#Cc1cccc(COc2cc(O[C@H]3CCc4c(-c5ccccc5F)cccc43)c(Cl)cc2CN2CCC(O)CC2)c1 [Example 2.110]
< 100	COc1cccc(-c2cccc3c2CC[C@@H]3Oc2cc(OCc3cncc(C#N)c3)c(CN[C@@H](CO)C(=O)O)cc2Cl)c1Cl [Example 2.043]
100 to 500	N#Cc1cncc(COc2cc(O[C@H]3CCc4c(-c5ccccc5F)cccc43)c(Cl)cc2CN[C@H](C(=O)O)[C@H](O)c2ccccc2)c1 [Example 2.132]
100 to 500	CC(C)C[C@H](NCc1cc(Cl)c(O[C@H]2CCc3c(-c4ccccc4F)cccc32)cc1OCc1cncc(C#N)c1)C(=O)O [Example 2.092]
100 to 500	CCOc1cc(O[C@H]2CCc3c(-c4ccccc4F)cccc32)c(Cl)cc1CN[C@H](CO)C(=O)O [Example 2.156]
< 100	COc1cc(O[C@H]2CCc3c(-c4ccc5c(c4)OCCO5)cccc32)c(Cl)cc1CN[C@@H](CO)C(=O)O [Example 2.039]
100 to 500	CCc1ccccc1-c1cccc2c1CC[C@@H]2Oc1cc(OCc2cncc(C#N)c2)c(CN[C@@H](CO)C(=O)O)cc1Cl [Example 2.035]

Same assay, conditions: Table 3; plate-coated human PD-L1, biotinylated human PD-1; read-out: ELISA IC50

IC50 [nM]	SMILES
< 100	N#Cc1cncc(COc2cc(O[C@H]3CCc4c(-c5ccccc5F)cccc43)c(Cl)cc2CN[C@@H](CO)C(=O)N[C@@H](CO)C(=O)N[C@@H](CO)C(=O)O)c1 [Example 3.048]
500 to 20000	N#Cc1cncc(COc2cc(O[C@H]3CCc4c(-c5ccc6c(c5F)OCCO6)cccc43)c(Cl)cc2CN[C@H]2CONC2=O)c1 [Example 3.042]
< 100	Cc1cncc(COc2cc(O[C@H]3CCc4c(-c5ccc6c(c5F)OCCO6)cccc43)c(Cl)cc2CN[C@@H](CO)C(=O)O)c1 [Example 3.025]
< 100	N#Cc1cncc(COc2cc(O[C@H]3CCc4c(-c5ccccc5F)cccc43)c(Cl)cc2CN[C@@H](CO)C(=O)NCC(=O)NCC(=O)O)c1 [Example 3.043]
100 to 500	CC(C)c1nccn1CCCNCc1cc(Cl)c(O[C@H]2CCc3c(-c4ccccc4F)cccc32)cc1OCc1cncc(C#N)c1 [Example 3.090]
< 100	N#Cc1cncc(COc2cc(O[C@H]3CCc4c(-c5ccccc5CO)cccc43)c(Cl)cc2CN[C@@H](CO)C(=O)O)c1 [Example 3.127]
< 100	CS(=O)(=O)c1cncc(COc2cc(O[C@H]3CCc4c(-c5ccc6c(c5F)OCCO6)cccc43)c(Cl)cc2CN[C@@H](CO)C(=O)O)c1 [Example 3.010]
< 100	Cn1cnc(CNCc2cc(Cl)c(O[C@H]3CCc4c(-c5ccccc5F)cccc43)cc2OCc2cncc(C#N)c2)c1 [Example 3.091]
< 100	N#Cc1cncc(COc2cc(O[C@H]3CCc4c(-c5ccc6c(c5F)OCCO6)cccc43)c(Cl)cc2CN[C@@H](CO)C(=O)O)c1 [Example 3.008]
500 to 20000	C[C@@H](O)[C@@H](CC(=O)O)NCc1cc(Cl)c(O[C@H]2CCc3c(-c4ccccc4F)cccc32)cc1OCc1cncc(C#N)c1 [Example 3.116]
500 to 20000	N#Cc1cncc(COc2cc(O[C@H]3CCc4c(-c5ccccc5F)cccc43)c(Cl)cc2CN[C@@H](Cc2c[nH]cn2)C(=O)NCC(=O)NCC(=O)O)c1 [Example 3.056]
500 to 20000	COCc1ccccc1-c1cccc2c1CC[C@@H]2Oc1cc(OCc2cncc(C#N)c2)c(CN[C@@H](CO)C(=O)O)cc1Cl [Example 3.115]
500 to 20000	CC(C)(C)OC(=O)[C@H](CO)NCc1cc(Cl)c(O[C@H]2CCc3c(-c4ccccc4F)cccc32)cc1OCc1cncc(C#N)c1 [Example 3.136]
< 100	N#Cc1cncc(COc2cc(O[C@H]3CCc4c(-c5cc6c(c(F)c5F)OCCO6)cccc43)c(Cl)cc2CN[C@@H](CO)C(=O)O)c1 [Example 3.011]
500 to 20000	Cc1cc2cc(CNCc3cc(Cl)c(O[C@H]4CCc5c(-c6ccccc6F)cccc54)cc3OCc3cncc(C#N)c3)ccc2[nH]1 [Example 3.087]
< 100	N#Cc1cc(C#N)cc(COc2cc(O[C@H]3CCc4c(-c5ccc6c(c5)OCCO6)cccc43)c(Cl)cc2CN[C@@H](CO)C(=O)O)c1 [Example 3.002]
< 100	N#Cc1cncc(COc2cc(O[C@H]3CCc4c(-c5ccccc5F)cccc43)c(Cl)cc2CN2CC[C@H](C(=O)O)C2)c1 [Example 3.131]
< 100	N#Cc1cncc(COc2cc(O[C@H]3CCc4c(-c5ccccc5F)cccc43)c(Cl)cc2CNCCO)c1 [Example 3.128]
